Laboratory results published in ChEMBL document CHEMBL1157351, “Total synthesis and evaluation of C25-benzyloxyepothilone C for tubulin assembly and cytotoxicity against MCF-7 breast cancer cells” (Bioorg Med Chem Lett, 2008).
Activity calls are given as the source filed them. The calls are words filed in the database; no cut-off is given here.

Tests used:
[1] = Inhibition of microtubule assembly
MCF7 [2] = experiment: Cytotoxicity against human MCF7 cells; type: functional
[3] = Inhibition of microtubule assembly at 100 uM
MCF7 [4] = experiment: Ratio of ED50 for drug to ED50 for epothilone B against human MCF7 cells; type: functional

C/C(=C\c1csc(C)n1)[C@@H]1C/C=C\CCC[C@H](COCc2ccccc2)C(O)[C@@H](C)C(=O)C(C)(C)C(O)CC(=O)O1 (some centres undefined)
EC50 [1]: 2500 nM
Activity (MCF7 [2]): 2.1 µM
Activity [3]: inactive
Ratio ED50 (MCF7 [4]): 1050
